The test system of this data set is Prox-1. As to the kind of experiment: Prox-1 antisense morpholino knockdown in Xenopus embryos, whole-mount in situ hybridisation for Prox1 and morphometry. Type of data set: in vivo, Xenopus laevis. Conditions: for reduction of total Prox-1 positive area: as compared to control tadpoles. The procedure: In a second example 25 ng of Prox-1 antisense morpholino oligonucleotides (Prox-1 MOs) was microinjected in a 1-cell stage Xenopus, in order to investigate the influence on the development of the lymphatic system. Prox1 is known to be expressed exclusively in lymphatic but not in blood vascular endothelial cells. Xenopus laevis embryos were obtained by artificial fertilization using standard techniques and sexually mature adult frogs purchased from Nasco Biology (Fort Atkinson, Wis.). The Prox-1 MOs, 5′-[…]-3′, were purchased from Gene Tools (Corvallis, Oreg.) and designed around the ATG codon. As ATG-specific morpholinos lower translation—but not transcription—of the target gene, we used whole embryo mount in situ hybridisation for Prox1 to visualize the defects in lymphatic vascular development. The 5′ nucleotide sequence of Prox-1 was obtained using 5′ RACE using primers based on published Xenopus laevis cDNA (GenBank # AB008773). To visualise Prox-1 expression pattern, embryos were collected at different developmental stages (according to Nieuwkoop and Faber), fixed and submitted to whole-mount in situ hybridisation according Harland (Harland, 1991), with the exception that BM purple was used as a substrate. The Prox-1 digoxigenin-labeled riboprobe used was constructed from a 950 bp cDNA fragment (GenBank # AB008773), which was cloned into pGEMTeasy and linearised with AatII to get SP6 antisense probe. After in situ hybridisation the embryos where bleached, cleared and stored in glycerol until analysed. Analysis was performed using a Zeiss Axioplan 2 imaging microscope equipped with a Axiocam HrC camera and the KS300 morphometry software. The total ISH-region was divided into 3 different regions where the first region represents the ventral side the tail, a second region where the dorsal migration of prox-1 positive cells takes place and finally a third region which represents the dorsal side. For all regions, length of positive staining was measured, followed by segmentation of the ISH-area by hue, lightness and saturation for defining the true stained area. A value of migration is given by the cell that traveled furthest across the tail. In non-morpholino treated Xenopus we observed that the normal lymphatic system starts developing at the jugular region of the tadpole around developmental stage 29/30. Apart from expression in non-lymphatic tissues such as the pronephros and the eye, the Prox-1 expression at this stage seems to be restricted to the jugular region. At the following stage (31-32), the staining in the jugular region is expanded to what will become the future lymphsacs. The region of the future anterior lymph hearts as well as the ventral caudal region show intense Prox-1 positive signal too. By stage 33/34 the prox positive cells in the caudal region start the formation of the ventral caudal lymphatic vessel. Prox-1 positive lymphatic cells are migrating from the ventral to the dorsal region and this event is culminating at stage 35/36 where the highest amount of migrating cells can be accounted for. The formation of what eventually will become the dorsal lymphatic vessel is also initiated at this stage. By stage 37-38 a majority of the prox positive cells have reached the dorsal side where they are contributing to the formation of dorsal caudal lymphatic vessels. […] In the tail of the Prox-1 morphants dorsal migration of Pro-1 positive cells is dearly impaired. […]

For the substance “5′-CAGGCATCACTGGACTGTTATTGTG-3′ (all phosphorodiamidate morpholino (PMO)) [Prox-1 MOs, Prox-1 antisense morpholino oligonucleotides purchased from Gene Tools, designed around the ATG codon]”, the “formation of the lymph hearts and the rostral lymphatic structures” value (Prox1 knockdown) was “impaired”. Also, the “cardiogenesis (looping, septation and beating of the heart, and blood circulation)” value (Prox1 morphants) is listed as “all normal”. In addition, the “development of blood vessels (number of Msr-positive intersomitic vessels in anterior trunk, Msr-positive area in posterior trunk)” value (Prox1 morphants) is “not affected”. Under “Prox-1 morphants”, the “Prox-1 staining of the anterior region” value is reported as “clearly reduced”. For the setting “beyond stage 45”, the “edema in the head and anterior trunk” value is “manifest edema in the head and anterior trunk developed in most Prox1 knockdown embryos”. In addition, the “reduction of total Prox-1 positive area” value was “about 60%” (stage 33/34), approximately 50% (stage 35/36) and approximately 35% (stage 37/38). In addition, the “reduction of dorsal migration of Prox-1 positive cells in the tail” value (stage 35/36, 25 ng microinjected in 1-cell stage, vs control tadpoles) is listed as “about 55%”. Besides, the “dorsal migration of Prox-1 positive cells in the tail” value (stage 37/38, 25 ng microinjected in 1-cell stage) was “significantly reduced”.

The record behind these values is US20070107072A1, “Transgenic amphibian models for lymphatic vessel development” (priority 2003, published 2007).
